A short description of assay [1]: Hypotensive test: systolic arterial pressure in female Sprague-Dawley rats. In kind it is in vivo, rat. As to conditions: for effect on systolic arterial pressure with respect to the control: short-term (2 to 4 hours) administration, female Sprague-Dawley rats, FIG. 5; for reduction of blood pressure: rats. The method, then: (§1) 2-Hydroxyoleic acid induced significant reductions of blood pressure in rats (FIG. 4a). These reductions occurred rapidly (at 2 hours of treatment, 19±6 mmHg, P<0.01, n=6) and after a long period (1 week, 26±7 mmHg, P<0.001, n=6). In genetically hypertensive rats, SHR strain, ingestion of 2-hydroxyoleic acid (600 mg/kg every 12 hours) produced very marked reductions in blood pressure. These reductions, of some 70 mmHg, induced normalization of systolic pressure in hypertensive SHR rats.

For assay [2], the system named is G-proteins. The assay is described as follows: Binding of [35S]GTPγS to membranes of NIH 3T3 cells transfected with the rat adrenoceptor α2A/D (activity of G-proteins). Format: biochemical. As to conditions: membranes of NIH 3T3 cells transfected with rat adrenoceptor α2A/D; FIG. 2; compared with daunomycin. From the text:
Hydroxyoleic acid and related compounds are capable of modulating the activity of G-proteins, measured by the binding of [^35S] GTPγS (FIG. 2). […] Abscissa: C=control; 2OHOA=2-hydroxyoleic; DNM=daunomycin. Ordinate: Binding of [^35S]GTPγS (% of control).

A short description of assay [3]: Systolic arterial pressure in genetically hypertensive rats, SHR strain. Format: in vivo, rat. The method, then:
as §1
(§2) In SHRs which were not given 2-hydroxyoleic acid (SHR empty squares), no reduction in arterial pressure was observed. […] The reduction induced by hydroxyoleic acid on arterial pressure meant that there was no significant difference between the values registered at the end of the diet period for the hypertensive and normotensive rats.

Assay [4] can be described thus: Systolic arterial pressure in normotensive WKY rats. Format: in vivo, rat. Particulars: male WKY (normotensive) rats, 600 mg/kg every 12 hours for 7 days, FIG. 6. The method, then:
as §1, §2

Assay [5] can be described thus: Blood pressure in humans. In kind it is in vivo, human. Particulars: 90 mg/kg per day for 8 days, FIG. 4b. From the text: The days prior to treatment are shown with negative values. *P<0.05, **P<0.01.
Assay [6] can be described thus: Body weight of normotensive (WKY) and hypertensive (SHR) rats. In kind it is in vivo, rat. Particulars: 600 mg/kg every 12 hours, 8 days. The method, then:
In another series of experiments, the diet of normotensive rats (WKY) and hypertensive rats (SHR) was supplemented with hydroxyoleic acid (600 mg/kg, every 12 hours) and it was confirmed that the weight of the animals decreased by between 30 and 40 grams (15-20% of the body weight) in an 8-day diet period (FIG. 8).

A short description of assay [7]: Blood pressure and heart rate after ingestion (species not stated). Format: in vivo. As to conditions: chronic treatments lasting a week. The method, then: The hypotensive effect produced by ingestion of 2-hydroxyoleic acid and its analogs results in a reduction in blood pressure within 2 hours of ingestion, and this is maintained for days and weeks while ingestion of this compound is maintained. Aminoleic acid, for example, reduces blood pressure by 15 mmHg in chronic treatments lasting a week.

Experimental findings from patent US20070099995A1, “Use of hydroxyoleic acid and related compounds as functional food additives” (priority 2003, published 2007) are described below.

For `CCCCCC/C=C\CCCCCCCC(=O)O` [palmitoleic acid], the “effect on systolic arterial pressure with respect to the control” value (“effect … to the control” below) in assay [1] is reported as “significant decreases”.

As for `CCCCCCCC/C=C\CCCCCCC(O)C(=O)O` (stereo not drawn) [2-hydroxyoleic acid, cis-2-hydroxy-9-octadecenoic acid], in assay [2], the “Binding of [35S]GTPγS (function of the G-proteins)” value is on record as “decrease in function of the G-proteins even greater than daunomycin”. Moreover, the “reduction of blood pressure” value in assay [1] (1 week (chronic, 90 mg/kg per day for 7 days, FIG. 4a), n=6, P<0.001) worked out at 26±7 mmHg; in assay [1] (at 2 hours of treatment (acute, 30 mg/kg, FIG. 4a), n=6, P<0.01), 19±6 mmHg. The “effect … to the control” value in assay [1] is listed as “significant decreases”. Further, the “reduction in blood pressure (systolic)” value in assay [3] (SHR rats, 600 mg/kg every 12 hours) was about 70 mmHg. For the same molecule, in assay [3] (male SHR rats, 600 mg/kg every 12 hours for 7 days, FIG. 6), the “effect on systolic arterial pressure” value is recorded as “significant, large reductions”. In addition, in assay [4], the “effect on arterial pressure” value is “neither the 2-hydroxyoleic acid (black circles) nor the vehicle (empty circles) produced statistically significant changes”. Besides, in assay [5], the “effect on blood pressure” value is “significant, large decreases”. Further, the “reduction in body weight” value in assay [6] is 15-20%.

Consider `CCCCCC/C=C\CCCCCCCCCC(=O)O` [cis-vaccenic acid], for which the “effect … to the control” value in assay [1] is “significant decreases”.

Turning to `CCCCCCCC/C=C\CCCCCCCCCCCCCC(=O)O` [nervonic acid], in assay [1], the “effect … to the control” value was “significant decreases”.

For the molecule `CCCCCCCC/C=C\CCCCCCC(C)C(=O)O` (stereo not drawn) [2-methyl oleic acid], in assay [1], the “effect … to the control” value was “significant decreases”.

`CCCCCCCC/C=C\CCCCCCCC(=O)O` [oleic acid]: the “effect … to the control” value in assay [1] is listed as “significant decreases”.

As for Aminoleic acid, the “reduction of blood pressure” value in assay [7] came out at 15 mmHg.
